Laboratory results published in patent publication US20260315604A1, “OTUB1 Small-Molecule Binders and OTUB1-recruiting Deubiquitinase-targeting Chimeras (DUBTACs)” (ICAHN SCHOOL OF MEDICINE AT MOUNT SINAI, priority 2023, published 2026).

Biological target: T1, Human OTUB1 wild-type (Homo sapiens, UniProt Q96FW1)
T1 construct: His tag (N); made in house; host or cells: E. coli BL21-CodonPlus (DE3)-RIPIL
Assay: Covalent modification of OTUB1 (adduct formation), mass spectrometry-based assay (OTUB1 covalent binders; selected CFTR or cGAS based bivalent compounds)
Assay type: binding
Details: covalent adduct formation with OTUB1 protein
Outline: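 His-tagged human OTUB1 (10 μM), E. coli-expressed, incubated with compound (2500 μM) in 50 mM Tris-HCl pH 7.5, 150 mM NaCl, 0.5 mM TCEP for 1 h at room temperature. Adduct detected by intact-protein LC/ESI-TOF mass spectrometry after buffer exchange; duplicates.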

T1 sequence (Q96FW1 whole entry): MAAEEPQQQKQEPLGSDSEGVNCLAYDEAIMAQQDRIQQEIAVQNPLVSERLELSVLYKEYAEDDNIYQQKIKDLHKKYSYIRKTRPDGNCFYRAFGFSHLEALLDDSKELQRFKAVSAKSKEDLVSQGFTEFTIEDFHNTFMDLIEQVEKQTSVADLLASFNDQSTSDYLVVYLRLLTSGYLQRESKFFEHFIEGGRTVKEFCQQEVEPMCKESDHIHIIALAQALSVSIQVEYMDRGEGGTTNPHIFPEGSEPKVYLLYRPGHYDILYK

Structure (SMILES)	% of OTUB1 modified [%]
Cc1ccc(NC(=O)C2(O)CN(C(=O)C#CCN(C)C)C2)s1 [XS209-99, 1-(4-(dimethylamino)but-2-ynoyl)-3-hydroxy-N-(5-methylthiophen-2-yl)azetidine-3-carboxamide]	98
Cc1ccc(NC(=O)C2(O)CN(C(=O)C#CC(C)(C)N(C)C)C2)s1 [XS209-100, 1-(4-(dimethylamino)-4-methylpent-2-ynoyl)-3-hydroxy-N-(5-methylthiophen-2-yl)azetidine-3-carboxamide]	25
CN(C)CC#CC(=O)N1CC(C)(C(=O)Nc2cc3ccccc3s2)C1 [XS209-175, N-(benzo[b]thiophen-2-yl)-1-(4-(dimethylamino)but-2-ynoyl)-3-methylazetidine-3-carboxamide]	90
CN(C)CC#CC(=O)N1CC(C(=O)Nc2cc3ccccc3s2)C1 [XS224-106, N-(benzo[b]thiophen-2-yl)-1-(4-(dimethylamino)but-2-ynoyl)azetidine-3-carboxamide]	98
CN(C)C(C)(C)C#CC(=O)N1CC(C(=O)Nc2cc3ccccc3s2)C1 [XS224-107, N-(benzo[b]thiophen-2-yl)-1-(4-(dimethylamino)-4-methylpent-2-ynoyl)azetidine-3-carboxamide]	60
Cc1ccc(NC(=O)C2CN(C(=O)C#CCN(C)C)C2)s1 [XS224-110, 1-(4-(dimethylamino)but-2-ynoyl)-N-(5-methylthiophen-2-yl)azetidine-3-carboxamide]	100
Cc1ccc(NC(=O)C2CN(C(=O)C#CC(C)(C)N(C)C)C2)s1 [XS224-111, 1-(4-(dimethylamino)-4-methylpent-2-ynoyl)-N-(5-methylthiophen-2-yl)azetidine-3-carboxamide]	53
CC(C)c1ccc(NC(=O)C2CN(C(=O)C#CCN(C)C)C2)s1 [XS224-116, 1-(4-(dimethylamino)but-2-ynoyl)-N-(5-isopropylthiophen-2-yl)azetidine-3-carboxamide]	100
CC(C)c1ccc(NC(=O)C2CN(C(=O)C#CC(C)(C)N(C)C)C2)s1 [XS224-117, 1-(4-(dimethylamino)-4-methylpent-2-ynoyl)-N-(5-isopropylthiophen-2-yl)azetidine-3-carboxamide]	60
CN(C)CC#CC(=O)N1CC(C(=O)Nc2csc3ccccc23)C1 [XS224-118, N-(benzo[b]thiophen-3-yl)-1-(4-(dimethylamino)but-2-ynoyl)azetidine-3-carboxamide]	10
CN(C)C(C)(C)C#CC(=O)N1CC(C(=O)Nc2csc3ccccc23)C1 [XS224-119, N-(benzo[b]thiophen-3-yl)-1-(4-(dimethylamino)-4-methylpent-2-ynoyl)azetidine-3-carboxamide]	60
Cc1ccc(C(=O)N2CC(NC(=O)C#CCN(C)C)C2)s1 [XS224-144, 4-(dimethylamino)-N-(1-(5-methylthiophene-2-carbonyl)azetidin-3-yl)but-2-ynamide]	90
Cc1ccc(C(=O)N2CC(NC(=O)C#CC(C)(C)N(C)C)C2)s1 [XS224-145, 4-(dimethylamino)-4-methyl-N-(1-(5-methylthiophene-2-carbonyl)azetidin-3-yl)pent-2-ynamide]	60
Cc1ccc(C(=O)NC2CC(NC(=O)C#CCN(C)C)C2)s1 (stereo not shown) [XS224-148, N-(3-(4-(dimethylamino)but-2-ynamido)cyclobutyl)-5-methylthiophene-2-carboxamide]	90
Cc1ccc(C(=O)NC2CC(NC(=O)C#CC(C)(C)N(C)C)C2)s1 (stereo not shown) [XS224-149, N-(3-(4-(dimethylamino)-4-methylpent-2-ynamido)cyclobutyl)-5-methylthiophene-2-carboxamide]	15

The next lines start with the values.

% of OTUB1 modified [%]	Structure (SMILES)
75	CN(C)C/C=C/C(=O)N1C2CCC1C(=O)N(C1=CCCCC1)C2 (stereo not shown) [XS209-30, (E)-3-(cyclohex-1-en-1-yl)-8-(4-(dimethylamino)but-2-enoyl)-3,8-diazabicyclo[3.2.1]octan-2-one]
20	Cc1cnc(NC(=O)C2(C)CN(C(=O)/C=C/CN(C)C)C2)s1 [XS209-38, (E)-1-(4-(dimethylamino)but-2-enoyl)-3-methyl-N-(5-methylthiazol-2-yl)azetidine-3-carboxamide]
40	Cc1cnc(NC(=O)C2(O)CN(C(=O)/C=C/CN(C)C)C2)s1 [XS209-39, (E)-1-(4-(dimethylamino)but-2-enoyl)-3-hydroxy-N-(5-methylthiazol-2-yl)azetidine-3-carboxamide]
60	CCCC(=O)N1CC2CC(C1)N2C(=O)/C=C/CN(C)C [XS209-40, (E)-1-(3-butyryl-3,6-diazabicyclo[3.1.1]heptan-6-yl)-4-(dimethylamino)but-2-en-1-one]
40	CC(=O)N1CCC2(CCC(C(=O)N3CC4CC(C3)N4C(=O)/C=C/CN(C)C)CC2)C1 (stereo not shown) [XS209-53, (E)-1-(3-(2-acetyl-2-azaspiro[4.5]decane-8-carbonyl)-3,6-diazabicyclo[3.1.1]heptan-6-yl)-4-(dimethylamino)but-2-en-1-one]
35	CC(=O)N1CC2(CCC(C(=O)N3CC4CC(C3)N4C(=O)/C=C/CN(C)C)CC2)C1 [XS209-54, (E)-1-(3-(2-acetyl-2-azaspiro[3.5]nonane-7-carbonyl)-3,6-diazabicyclo[3.1.1]heptan-6-yl)-4-(dimethylamino)but-2-en-1-one]
80	Cc1cnc(C(=O)N2CC3CC(C2)N3C(=O)/C=C/CN(C)C)s1 [XS209-65, (E)-4-(dimethylamino)-1-(3-(5-methylthiazole-2-carbonyl)-3,6-diazabicyclo[3.1.1]heptan-6-yl)but-2-en-1-one]
98	Cc1ccc(N2CC3CCC(C2=O)N3C(=O)C#CC(C)(C)N(C)C)s1 (stereo not shown) [XS209-74, 8-(4-(dimethylamino)-4-methylpent-2-ynoyl)-3-(5-methylthiophen-2-yl)-3,8-diazabicyclo[3.2.1]octan-2-one]
75	Cc1ccc(C(=O)N2CC3CC(C2)N3C(=O)C#CC(C)(C)N(C)C)s1 [XS209-75, 4-(dimethylamino)-4-methyl-1-(3-(5-methylthiophene-2-carbonyl)-3,6-diazabicyclo[3.1.1]heptan-6-yl)pent-2-yn-1-one]
15	Cc1cnc(C(=O)N2CC3CC(C2)N3C(=O)/C=C/CN(C)C)o1 [XS209-92, (E)-4-(dimethylamino)-1-(3-(5-methyloxazole-2-carbonyl)-3,6-diazabicyclo[3.1.1]heptan-6-yl)but-2-en-1-one]
100	CC(=O)N1CC2CC(C1)N2C(=O)C#CCN(C)C [XS209-101, 1-(3-acetyl-3,6-diazabicyclo[3.1.1]heptan-6-yl)-4-(dimethylamino)but-2-yn-1-one]
2	Cc1ccc(NC(=O)C2CC3CCC(C2)N3C(=O)/C=C/CN(C)C)s1 (stereo not shown) [XS209-122, (E)-8-(4-(dimethylamino)but-2-enoyl)-N-(5-methylthiophen-2-yl)-8-azabicyclo[3.2.1]octane-3-carboxamide]
2	Cc1ccc(C(=O)NC2CC3CCC(C2)N3C(=O)/C=C/CN(C)C)s1 (stereo not shown) [XS209-139, (E)-N-(8-(4-(dimethylamino)but-2-enoyl)-8-azabicyclo[3.2.1]octan-3-yl)-5-methylthiophene-2-carboxamide]
20	Cc1ccc(C(=O)Nc2ccc(NC(=O)/C=C/CN(C)C)cc2)s1 [XS209-165, (E)-N-(4-(4-(dimethylamino)but-2-enamido)phenyl)-5-methylthiophene-2-carboxamide]
90	CCCC(=O)N1CC2CC(C1)N2C(=O)C#CCN(C)C [XS209-166, 1-(3-butyryl-3,6-diazabicyclo[3.1.1]heptan-6-yl)-4-(dimethylamino)but-2-yn-1-one]
15	CCCC(=O)N1CC2CC(C1)N2C(=O)C#CC(C)(C)N(C)C [XS209-168, 1-(3-butyryl-3,6-diazabicyclo[3.1.1]heptan-6-yl)-4-(dimethylamino)-4-methylpent-2-yn-1-one]
55	CN(C)C/C=C/C(=O)N1CC(O)(C(=O)Nc2cc3c(s2)CCCC3)C1 [XS209-176, (E)-1-(4-(dimethylamino)but-2-enoyl)-3-hydroxy-N-(4,5,6,7-tetrahydrobenzo[b]thiophen-2-yl)azetidine-3-carboxamide]
80	CC(=O)N1CCN(c2ccc(C(=O)N3CC4CC(C3)N4C(=O)/C=C/CN(C)C)s2)CC1 [XS209-184, (E)-1-(3-(5-(4-acetylpiperazin-1-yl)thiophene-2-carbonyl)-3,6-diazabicyclo[3.1.1]heptan-6-yl)-4-(dimethylamino)but-2-en-1-one]
85	CN(C)C/C=C/C(=O)N1C2CC1CN(C(=O)c1ccc(N3CCN(C)CC3)s1)C2 [XS209-185, (E)-4-(dimethylamino)-1-(3-(5-(4-methylpiperazin-1-yl)thiophene-2-carbonyl)-3,6-diazabicyclo[3.1.1]heptan-6-yl)but-2-en-1-one]
100	CN(C)CC#CC(=O)N1CC(C(=O)Nc2cc3c(s2)CCCC3)C1 [XS224-108, 1-(4-(dimethylamino)but-2-ynoyl)-N-(4,5,6,7-tetrahydrobenzo[b]thiophen-2-yl)azetidine-3-carboxamide]
75	CN(C)C(C)(C)C#CC(=O)N1CC(C(=O)Nc2cc3c(s2)CCCC3)C1 [XS224-109, 1-(4-(dimethylamino)-4-methylpent-2-ynoyl)-N-(4,5,6,7-tetrahydrobenzo[b]thiophen-2-yl)azetidine-3-carboxamide]
7	Cc1ccc(C(=O)N2CC(NC(=O)/C=C/CN(C)C)C2)s1 [XS224-143, (E)-4-(dimethylamino)-N-(1-(5-methylthiophene-2-carbonyl)azetidin-3-yl)but-2-enamide]
